Measured values: the Deep4Chem optical property database

Test: solvent given as SMILES

## CC1(C)C(/C=C/C2=C(Oc3ccc(CCN=C=S)cc3)C(=C/C=C3/N(CCCS(=O)(=O)[O-])c4ccccc4C3(C)C)/CCC2)=[N+](CCCS(=O)(=O)[O-])c2ccccc21
In CO
  emission maximum: 794 nm

## CCN(CC)c1ccc2c(C(F)(F)F)cc(=O)oc2c1
In C1CCCCC1
  emission maximum: 433 nm
In CC#N
  emission maximum: 501 nm
In CCO
  emission maximum: 509 nm
In CCOC(C)=O
  emission maximum: 479 nm
In OCC(O)CO
  emission maximum: 524 nm

## c1ccc2c(-c3cc(-c4nccs4)nc(-c4nccs4)c3)cccc2c1
In CC#N
  emission maximum: 386 nm
In CCCCCC
  emission maximum: 359 nm
In CO
  emission maximum: 422 nm
In ClC(Cl)Cl
  emission maximum: 377 nm

## C[N+]1=C(/C=C/C=C2/N(CCCS(=O)(=O)[O-])c3ccccc3C2(C)C)C(C)(C)c2ccccc21
In CS(C)=O
  emission maximum: 565 nm

## COc1ccc2c(c1)c1ccccc1n2-c1nc2ccccc2nc1-n1c2ccccc2c2cc(OC)ccc21
In C1CCOC1
  emission maximum: 588.86 nm
In CCCCCC
  emission maximum: 508.97 nm
In Cc1ccccc1
  emission maximum: 560 nm

## Oc1ccc2ccccc2c1/C=N/c1cc2nc3ccccc3nc2cc1/N=C/c1c(O)ccc2ccccc12
In CC#N
  emission maximum: 525 nm

## CC1(C)CC(/C=C/c2cn(-c3ccccc3)nc2-c2ccccc2)=CC(=C(C#N)C#N)C1
In C1CCOC1
  emission maximum: 556 nm
In C1COCCO1
  emission maximum: 548 nm
In CCO
  emission maximum: 564 nm
In CCOC(C)=O
  emission maximum: 564 nm
In CN(C)C=O
  emission maximum: 565 nm
In CO
  emission maximum: 561 nm
In CS(C)=O
  emission maximum: 578 nm
In Cc1ccccc1
  emission maximum: 542 nm
In ClC(Cl)Cl
  emission maximum: 550 nm
In ClCCl
  emission maximum: 550 nm

## Oc1ccccc1
In C1CCCCC1
  emission maximum: 294.99 nm

## CNC1=C2C=CC=[N+]2[B-](F)(F)n2cccc21
In C1CCCCC1
  emission maximum: 463 nm
In CC(C)=O
  emission maximum: 441.5 nm
In CCO
  emission maximum: 439 nm
In CCOC(C)=O
  emission maximum: 444.5 nm
In CO
  emission maximum: 440 nm
In OCC(F)(F)F
  emission maximum: 449 nm

## CO[B-]1(OC)n2c(C)cc(C)c2C(c2ccc(I)cc2)=C2C(C)=CC(C)=[N+]21
In ClC(Cl)Cl
  emission maximum: 517.6 nm

## CCC(CC)COC1=CC2=C3c4cc(OCC(CC)CC)c(-c5cccs5)n4[B-](F)(F)[n+]4c3n(c3cc(C(C)(C)C)ccc34)[B-](F)(F)[N+]2=C1c1cccs1
In C1CCOC1
  emission maximum: 809 nm
In ClCCl
  emission maximum: 811 nm

## O=c1cc[nH]c(=O)[nH]1
In CC#N
  emission maximum: 311 nm

## Cc1nc2c(cc3c4c(cccc42)C(=O)OC3=O)o1
In CCO
  emission maximum: 418 nm

## Cc1cc(C)cc(NC(=O)c2sc(Br)nc2C)c1
In C1CCOC1
  emission maximum: 413.2 nm
In CC#N
  emission maximum: 399 nm
In CCCCCC
  emission maximum: 400.6 nm
In CCOC(C)=O
  emission maximum: 405.5 nm
In CN(C)C=O
  emission maximum: 398.2 nm
In CO
  emission maximum: 402 nm
In CS(C)=O
  emission maximum: 402.5 nm
In ClC(Cl)Cl
  emission maximum: 411.5 nm

## C(=C\c1ccnc2ccccc12)/c1c2ccccc2cc2ccccc12
In CC1CCCCC1
  emission maximum: 498 nm
In CC#N
  emission maximum: 530 nm

## COc1nc(Cl)nc(Nc2ccc3c4cccc5cccc(c6cccc2c63)c54)n1
In C1COCCO1
  emission maximum: 479 nm
In CC#N
  emission maximum: 482 nm
In CCCCOCCCC
  emission maximum: 477 nm
In CCOC(C)=O
  emission maximum: 477 nm

## CC(=O)c1ccc(/C=C/C=C/C2=NC3C(=O)NC(N)=NC3N2[C@H]2C[C@H](O)[C@@H](CO)O2)cc1 (stereo partly specified)
In C1COCCO1
  emission maximum: 494 nm
In CC#N
  emission maximum: 547 nm
In CO
  emission maximum: 554 nm

## O=[N+]([O-])c1ccc(C2=Nc3sc(-c4ccccc4)n[n+]3[B-](F)(F)O2)cc1
In Cc1ccccc1
  emission maximum: 409 nm

## O=c1oc2ccccc2cc1-c1cn2ccccc2n1
In ClC(Cl)Cl
  emission maximum: 456 nm

## CN(C)c1ncc2nc(C#N)n(Cc3ccccc3)c2n1
In C1COCCO1
  emission maximum: 424 nm
In CC#N
  emission maximum: 440 nm
In CO
  emission maximum: 456 nm
In ClCCl
  emission maximum: 429 nm

## N#Cc1nc(-n2c3ccccc3c3ccccc32)cc(-n2c3ccccc3c3ccccc32)n1
In Cc1ccccc1
  emission maximum: 518 nm

## F[B-]1(F)OC(c2ccccc2)=Cc2cc3[n+](c[n+]21)[B-](F)(F)OC(c1ccccc1)=C3
In ClCCl
  emission maximum: 490 nm

## Cc1cc(-c2ccccc2)cc(C)[o+]1
In CC#N
  emission maximum: 462 nm
In ClCCl
  emission maximum: 434 nm

## COc1cc2c(cc1-c1ccc(N(C)C)cc1)Cc1c3c(c4c(c1-2)-c1cc(OC)c(-c2ccc(N(C)C)cc2)cc1C4)C(=O)N(CCC(C)C)C3=O
In C1CCOC1
  emission maximum: 593 nm

## c1ccc(-c2ccc(-c3cc(-c4ccc(-c5ccccc5)cc4)cc(-c4ccc(-c5ccccc5)cc4)c3)cc2)cc1
In C1COCCO1
  emission maximum: 364 nm

## C(=C\c1cccc(/C=C/c2c3ccccc3cc3ccccc23)c1)/c1ccncc1
In C1CCOC1
  emission maximum: 475 nm

## CCn1c2ccccc2sc2c(C#N)c3[nH]c4ccccc4sc3c(C#N)c21
In ClC(Cl)Cl
  emission maximum: 615 nm

## CC(C)(C)NC(=O)c1ccc2ccc3cccc4ccc1c2c34
In ClC(Cl)Cl
  emission maximum: 382 nm

## CC(C)(C)c1ccc(-c2nc3c4ccc(-c5c6ccccc6cc6ccccc56)cc4c4cc(-c5c6ccccc6cc6ccccc56)ccc4c3n2-c2ccc(C(C)(C)C)cc2)cc1
In C1CCOC1
  emission maximum: 428 nm
In C1COCCO1
  emission maximum: 429 nm
In CC#N
  emission maximum: 455 nm
In CCCCCC
  emission maximum: 419 nm
In CCCCOCCCC
  emission maximum: 424 nm
In CCN(CC)CC
  emission maximum: 421 nm
In CCOC(C)=O
  emission maximum: 429 nm
In CCOCC
  emission maximum: 424 nm
In CN(C)C=O
  emission maximum: 451 nm
In Cc1ccccc1
  emission maximum: 428 nm
In ClC=C(Cl)Cl
  emission maximum: 429 nm
In ClCCl
  emission maximum: 442 nm

## CCN(CC)c1ccc2c(-c3ccccc3C(=O)O)c3c([o+]c2c1)/C(=C/c1nc(-c2ccccc2)n2ccccc12)CCC3
In ClCCl
  emission maximum: 746 nm

## O=P(c1ccccc1)(c1ccccc1)n1c2ccccc2c2ccccc21
In C1CCOC1
  emission maximum: 360 nm
In CC(C)=O
  emission maximum: 406 nm
In Cc1ccccc1
  emission maximum: 372 nm
In ClCCl
  emission maximum: 355 nm

## O=S(=O)([O-])c1ccc(O)c2ccccc12
In C1COCCO1
  emission maximum: 357 nm
In CC#N
  emission maximum: 358 nm
In CC(C)O
  emission maximum: 360 nm
In CCCCO
  emission maximum: 361 nm
In CCO
  emission maximum: 360 nm
In CCOC(C)=O
  emission maximum: 354 nm
In CN(C)C=O
  emission maximum: 366 nm
In CO
  emission maximum: 361 nm
In CS(C)=O
  emission maximum: 370 nm

## c1ccc2c(-c3c4ccccc4c(-c4ccc(-c5ccc(-n6c7ccccc7c7ccccc76)cc5)cc4)c4ccccc34)cccc2c1
In ClCCl
  emission maximum: 420 nm

## CCOC(=O)COc1ccc(/C=C/C2=C3C(C)=CC(/C=C/c4ccc(OCC(=O)OCC)cc4)=[N+]3[B-](F)(F)n3c2c2ccccc2c3-c2[nH]c(C)cc2C)cc1
In ClCCl
  emission maximum: 733 nm

## C(=C\c1ccncn1)/c1ccc(-c2ccc(N(c3ccccc3)c3ccccc3)cc2)cc1
In C1CCOC1
  emission maximum: 525 nm
In CC#N
  emission maximum: 599 nm
In CCCCCCC
  emission maximum: 445 nm
In CS(C)=O
  emission maximum: 609 nm
In ClCCl
  emission maximum: 563 nm

## CCCCCCc1ccc(-n2c3c4cccc(OC)c4nc(-c4ccc(C)cc4)c3c3c2c2c(-c4ccc(C)cc4)nc4c(OC)cccc4c2n3-c2ccc(CCCCCC)cc2)cc1
In ClC(Cl)Cl
  emission maximum: 464 nm

## Cc1cc(=O)oc2ccc3ccc(O)cc3c12
In CC#N
  emission maximum: 429 nm
In CCO
  emission maximum: 450 nm

## CCC1=C(C)C2=C(c3c4ccccc4c(-c4ccccc4)c4ccccc34)c3c(C)c(CC)c(C)n3[B-](F)(F)[N+]2=C1C
In CC#N
  emission maximum: 536 nm
In CCCCCC
  emission maximum: 539 nm
In CCO
  emission maximum: 538 nm
In CN(C)C=O
  emission maximum: 539 nm
In Cc1ccccc1
  emission maximum: 544 nm
In ClCCl
  emission maximum: 543 nm

## Cc1cccc(C2=Cc3c4ccccc4cc[n+]3[B-](F)(F)O2)c1
In ClC(Cl)Cl
  emission maximum: 464.8 nm

## O=P(c1ccccc1)(c1ccccc1)n1c2ccccc2c2cc(-n3c4ccccc4c4cc(-n5c6ccccc6c6cc(-n7c8ccccc8c8ccccc87)ccc65)ccc43)ccc21
In C1CCOC1
  emission maximum: 378 nm
In CC(C)=O
  emission maximum: 382 nm
In Cc1ccccc1
  emission maximum: 376 nm
In ClCCl
  emission maximum: 383 nm

## CC(C)(C)NC(=O)c1cc2ccc3cccc4ccc(c1C(=O)NC(C)(C)C)c2c34
In ClC(Cl)Cl
  emission maximum: 392 nm

## O=c1c2cc(F)c(N3CCCCC3)cc2oc2cc(N3CCCCC3)c(F)cc12
In CCO
  emission maximum: 457 nm

## F[B-]1(F)n2cccc2C(c2ccccc2)=C2C=CC(c3ccc(OC4=[N+]5C(=C(c6ccccc6)c6cc(Br)c(Br)n6[B-]5(F)F)C=C4Br)cc3)=[N+]21
In ClC(Cl)Cl
  emission maximum: 574 nm

## Cc1c2c(c(C)c3ccccc13)C1=CC3Nc4ccccc4NC3C=C12 (stereo unspecified)
In ClC(Cl)Cl
  emission maximum: 502 nm

## Brc1ccc(-c2nc3sc4ccccc4c3s2)cc1
In CS(C)=O
  emission maximum: 420 nm

## Cc1cccn2c1cc1c3ccccc3nc(-c3cccs3)c12
In CS(C)=O
  emission maximum: 514 nm

## c1ccc(-n2c(-c3ccc(N(c4ccc(-c5ccc(N(c6ccc(-c7nc8c9ccccc9c9ccccc9c8n7-c7ccccc7)cc6)c6ccc(-c7nc8c9ccccc9c9ccccc9c8n7-c7ccccc7)cc6)cc5)cc4)c4ccc(-c5nc6c7ccccc7c7ccccc7c6n5-c5ccccc5)cc4)cc3)nc3c4ccccc4c4ccccc4c32)cc1
In ClCCl
  emission maximum: 432 nm

## Cc1c2c(c(C)c3ccccc13)C1=C2C=CC2Nc3ccccc3NC12 (stereo unspecified)
In ClC(Cl)Cl
  emission maximum: 544 nm

## COc1ccc(C2=C3C(C)=CC(C=Cc4ccc(C(=O)OC5C[C@H]6CCC5(C)C6(C)C)cc4)=[N+]3[B-](F)(F)n3c(C)cc(C)c32)cc1 (stereo partly specified)
In Cc1ccccc1
  emission maximum: 627 nm

## Cc1cc(C)c(-c2cc3c(s2)-c2sc(-c4c(C)cc(C)cc4C)cc2P(c2ccccc2)(c2ccccc2)=[O+][B-]3(c2c(C)cc(C)cc2C)c2c(C)cc(C)cc2C)c(C)c1
In C1CCOC1
  emission maximum: 472 nm

## C(=C\c1cc(/C=C/c2ccc(-n3c4ccccc4c4ccccc43)cc2)cc(/C=C/c2ccc(-n3c4ccccc4c4ccccc43)cc2)c1)/c1ccc(-n2c3ccccc3c3ccccc32)cc1
In C1CCOC1
  emission maximum: 403 nm
In CC#N
  emission maximum: 429 nm
In Cc1ccccc1
  emission maximum: 401 nm
In ClCCl
  emission maximum: 419 nm

## C(/C=C/c1ccc(-n2c3ccccc3c3ccccc32)cc1)=C\c1ccncc1
In C1COCCO1
  emission maximum: 436 nm
In CC#N
  emission maximum: 492 nm
In CCCCCCC
  emission maximum: 382 nm
In CO
  emission maximum: 496 nm

## N#Cc1cc(/C=C/c2ccc(/C=C/c3ccc(N(c4ccccc4)c4ccccc4)cc3)c(C#N)c2)ccc1/C=C/c1ccc(N(c2ccccc2)c2ccccc2)cc1
In ClCCl
  emission maximum: 577 nm

## C[Si](C)(C)C#CC#Cc1ccc2c3cccc4cccc(c5cccc1c52)c43
In C1CCCCC1
  emission maximum: 477.08 nm
